ChEMBL document CHEMBL1201862, “PubChem BioAssay data set” (2004)
Active and inactive are the calls of the source.

Key:
[1] = Luminescence Cell-Based Dose Response HTS to Identify Inhibitors of 5'UTR Stem-Loop Driven Prion Protein mRNA Translation in H4 Neuroglioblastoma Cells. [Related pubchem assays: 1827 (Project Summary), 1813 (Primary HTS)]; type: functional
[2] = HEK293T cell cytotoxicity, dose response, cytotoxicity control for HIV Vif inhibitor project, cherry-picks (AID 652208); type: functional, cell-based
[3] = target: G-protein coupled receptor 55 (Homo sapiens, UniProt Q9Y2T6); assay: GPR55 agonists via beta-arrestin recruitment, primary screen, imaging, U2OS cells, beta-arrestin-GFP redistribution (AID 1961); type: functional
Sequence of G-protein coupled receptor 55 (Q9Y2T6 whole entry): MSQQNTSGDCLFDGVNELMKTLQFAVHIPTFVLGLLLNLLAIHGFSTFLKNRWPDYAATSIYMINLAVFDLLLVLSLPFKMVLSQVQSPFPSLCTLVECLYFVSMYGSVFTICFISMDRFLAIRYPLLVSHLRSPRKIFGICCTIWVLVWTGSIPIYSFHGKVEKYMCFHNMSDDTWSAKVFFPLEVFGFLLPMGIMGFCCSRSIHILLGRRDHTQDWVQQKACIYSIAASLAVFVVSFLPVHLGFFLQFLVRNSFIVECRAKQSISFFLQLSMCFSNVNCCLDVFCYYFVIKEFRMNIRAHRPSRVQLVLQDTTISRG

[4] = inhibitors of firefly luciferase expression or activity, dose response, H4 neuroglioma cells, luminescence (AID 1990); type: functional, cell-based
[5] = inhibitors of SNCA 5'UTR-driven reporter translation, confirmation, H4 neuroglioma cells, luminescence (AID 1988); type: functional, cell-based
INS1 = assay: beta cell apoptosis inhibitors, cytokine rescue, dose response, luminescence, retest (AID 449756); type: functional, cell-based; settings: Rattus norvegicus;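 also: cell death triggered by IL-1 beta plus TNF-alpha plus IFN-gamma mixture; protective hits raise ATP signal compared with cytokine alone wells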
[6] = Counterscreen for activators of the function of SWI/SNF related, matrix associated, actin dependent regulator of chromatin, subfamily a, member 2 (SMARCA2, BRM): Luminescence-based cell-based high throughput dose response assay to identify non-selective compounds using the VP16 reporter assay.; type: functional
[7] = target: SWI/SNF-related matrix-associated actin-dependent regulator of chromatin subfamily A member 2 (Homo sapiens, UniProt P51531); assay: Luminescence-based cell-based high throughput dose response assay to identify activators of the function of SWI/SNF related, matrix associated, actin dependent regulator of chromatin, subfamily a, member 2 (SMARCA2, BRM).; type: functional
Sequence of SWI/SNF-related matrix-associated actin-dependent regulator of chromatin subfamily A member 2 (P51531 whole entry): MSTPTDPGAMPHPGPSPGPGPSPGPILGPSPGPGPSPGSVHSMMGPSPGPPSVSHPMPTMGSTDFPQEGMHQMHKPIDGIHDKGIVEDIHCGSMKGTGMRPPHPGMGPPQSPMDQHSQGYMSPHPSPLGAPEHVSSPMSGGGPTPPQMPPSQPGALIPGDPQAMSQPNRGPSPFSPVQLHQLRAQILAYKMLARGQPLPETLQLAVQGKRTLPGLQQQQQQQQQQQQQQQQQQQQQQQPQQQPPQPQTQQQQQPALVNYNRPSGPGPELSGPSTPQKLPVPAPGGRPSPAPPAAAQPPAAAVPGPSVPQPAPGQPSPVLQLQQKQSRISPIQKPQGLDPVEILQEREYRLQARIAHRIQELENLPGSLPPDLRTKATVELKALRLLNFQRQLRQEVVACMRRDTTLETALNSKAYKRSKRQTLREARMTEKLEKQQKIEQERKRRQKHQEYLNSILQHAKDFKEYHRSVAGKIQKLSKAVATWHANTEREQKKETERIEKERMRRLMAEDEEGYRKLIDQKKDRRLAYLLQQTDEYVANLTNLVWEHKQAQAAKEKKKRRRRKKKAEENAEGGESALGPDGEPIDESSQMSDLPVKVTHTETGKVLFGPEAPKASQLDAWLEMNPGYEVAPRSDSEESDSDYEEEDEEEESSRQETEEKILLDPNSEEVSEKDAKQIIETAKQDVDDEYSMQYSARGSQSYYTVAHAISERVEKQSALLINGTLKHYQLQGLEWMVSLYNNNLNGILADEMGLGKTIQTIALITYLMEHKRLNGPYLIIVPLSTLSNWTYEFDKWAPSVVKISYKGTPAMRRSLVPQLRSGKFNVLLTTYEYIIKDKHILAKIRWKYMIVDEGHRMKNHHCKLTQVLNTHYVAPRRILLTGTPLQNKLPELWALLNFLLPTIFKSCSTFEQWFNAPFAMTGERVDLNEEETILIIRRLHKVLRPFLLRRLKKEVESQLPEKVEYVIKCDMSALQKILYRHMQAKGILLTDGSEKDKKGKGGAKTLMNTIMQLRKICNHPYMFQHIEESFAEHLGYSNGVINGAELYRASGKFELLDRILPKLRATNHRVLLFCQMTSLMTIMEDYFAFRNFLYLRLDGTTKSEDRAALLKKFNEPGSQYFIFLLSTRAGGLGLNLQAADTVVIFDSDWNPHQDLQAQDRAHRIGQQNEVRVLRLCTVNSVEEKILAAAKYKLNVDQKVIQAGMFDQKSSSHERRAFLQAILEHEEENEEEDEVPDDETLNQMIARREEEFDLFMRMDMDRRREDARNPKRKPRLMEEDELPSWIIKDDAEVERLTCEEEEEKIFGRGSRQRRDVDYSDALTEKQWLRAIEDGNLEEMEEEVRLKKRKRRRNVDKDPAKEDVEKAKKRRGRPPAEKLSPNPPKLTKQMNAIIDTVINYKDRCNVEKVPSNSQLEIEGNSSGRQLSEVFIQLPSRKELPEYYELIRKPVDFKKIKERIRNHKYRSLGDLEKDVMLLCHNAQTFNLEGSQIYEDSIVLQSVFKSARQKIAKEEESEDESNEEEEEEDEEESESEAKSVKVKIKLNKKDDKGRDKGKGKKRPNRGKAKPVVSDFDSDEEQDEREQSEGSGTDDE

[8] = THP-1 cell cytotoxicity, dose response, cytotoxicity control for non-replicating M. tuberculosis project (AID 489025); type: functional
[9] = inhibitors of control Renilla luciferase reporter, dose response, counter-screen for Shn3 3'UTR targeting project, Clone20-Shn3RL cells, dual-Glo, cherry-pick, set 2 (AID 720724); type: functional, cell-based; settings: Dual-Go Shn3RL
[10] = reduction of Shn3 3'UTR firefly luciferase signal, dose response, Schnurri-3 inhibitor project, cell-based, Clone20 osteoblasts, cherry-pick, set 2 (AID 720490); type: functional;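 also: actives lower the luminescence signal as inhibitors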
[11] = Fluorescence-based cell-based high throughput dose response assay for inhibitors of the interaction of nucleotide-binding oligomerization domain containing 2 (NOD2) and the receptor-interacting serine-threonine kinase 2 (RIPK2).; type: functional; settings: Homo sapiens
[12] = Shn3 3'UTR reporter inhibitors, dose response, cell-based, Clone20 osteoblasts, firefly luciferase, cherry-picked (AID 624132); type: functional;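 also: firefly luciferase luminescence from reporter carrying the Shn3 3'UTR in osteoblasts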
[13] = Luminescence Cell-Based Dose Retest to Confirm Inhibitors of Cancer Stem Cells. [Related pubchem assays (depositor defined):AID2717, AID2721]; type: functional; settings: Homo sapiens
[14] = inhibitors of PGC1a acetylation in cells, dose response, cell-based, cherry-picked samples (AID 720514); type: functional;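 also: potency may reflect raised or lowered acetylation signal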
[15] = HepG2 cell cytotoxicity, dose response, cytotoxicity control for Shn3 inhibitor project, CellTiter-Glo, cherry-picked (AID 624134); type: functional, cell-based
cells = type: functional
[16] = control 3'UTR Renilla luciferase suppression, dose response, counter-screen for Shn3 inhibitor project, cell-based, Clone20-Shn3RL, cherry-picked (AID 624133); type: functional
Protein RecA = target: T1, Protein RecA (Mycobacterium tuberculosis, UniProt P9WHJ3); assay: Fluorescence Cell-Free Homogeneous Dose Retest to Identify Inhibitors of RecA-Intein Splicing Activity. [Related pubchem assays (depositor defined):AID2097, AID2223, AID489010, AID492950]; type: functional
T1 sequence (P9WHJ3 whole entry): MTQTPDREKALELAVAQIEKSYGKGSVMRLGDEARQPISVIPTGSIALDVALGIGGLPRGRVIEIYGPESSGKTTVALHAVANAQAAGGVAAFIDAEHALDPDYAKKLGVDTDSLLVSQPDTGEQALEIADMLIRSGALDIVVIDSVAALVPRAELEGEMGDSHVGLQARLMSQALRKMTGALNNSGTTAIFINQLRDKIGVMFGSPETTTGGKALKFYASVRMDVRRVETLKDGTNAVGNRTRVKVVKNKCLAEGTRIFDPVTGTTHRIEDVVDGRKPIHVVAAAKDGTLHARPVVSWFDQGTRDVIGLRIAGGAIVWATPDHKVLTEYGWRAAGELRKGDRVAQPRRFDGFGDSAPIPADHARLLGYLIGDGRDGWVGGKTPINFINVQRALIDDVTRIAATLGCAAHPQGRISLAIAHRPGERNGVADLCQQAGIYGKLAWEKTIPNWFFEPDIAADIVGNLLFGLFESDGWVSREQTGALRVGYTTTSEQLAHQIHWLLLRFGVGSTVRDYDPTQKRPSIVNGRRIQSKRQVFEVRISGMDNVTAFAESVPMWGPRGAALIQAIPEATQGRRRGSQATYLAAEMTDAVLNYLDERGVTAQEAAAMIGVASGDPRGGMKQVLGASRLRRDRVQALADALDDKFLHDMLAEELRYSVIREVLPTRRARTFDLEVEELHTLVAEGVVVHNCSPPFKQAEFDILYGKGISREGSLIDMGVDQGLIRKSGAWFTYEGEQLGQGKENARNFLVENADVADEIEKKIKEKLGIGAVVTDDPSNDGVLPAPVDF

[17] = target: T2, Replicative DNA helicase DnaB (Mycobacterium tuberculosis, UniProt P9WMR3); assay: DnaB intein splicing inhibitors, dose response, biochemical, cell-free fluorescence (AID 449749); type: functional
T2 sequence (P9WMR3 whole entry): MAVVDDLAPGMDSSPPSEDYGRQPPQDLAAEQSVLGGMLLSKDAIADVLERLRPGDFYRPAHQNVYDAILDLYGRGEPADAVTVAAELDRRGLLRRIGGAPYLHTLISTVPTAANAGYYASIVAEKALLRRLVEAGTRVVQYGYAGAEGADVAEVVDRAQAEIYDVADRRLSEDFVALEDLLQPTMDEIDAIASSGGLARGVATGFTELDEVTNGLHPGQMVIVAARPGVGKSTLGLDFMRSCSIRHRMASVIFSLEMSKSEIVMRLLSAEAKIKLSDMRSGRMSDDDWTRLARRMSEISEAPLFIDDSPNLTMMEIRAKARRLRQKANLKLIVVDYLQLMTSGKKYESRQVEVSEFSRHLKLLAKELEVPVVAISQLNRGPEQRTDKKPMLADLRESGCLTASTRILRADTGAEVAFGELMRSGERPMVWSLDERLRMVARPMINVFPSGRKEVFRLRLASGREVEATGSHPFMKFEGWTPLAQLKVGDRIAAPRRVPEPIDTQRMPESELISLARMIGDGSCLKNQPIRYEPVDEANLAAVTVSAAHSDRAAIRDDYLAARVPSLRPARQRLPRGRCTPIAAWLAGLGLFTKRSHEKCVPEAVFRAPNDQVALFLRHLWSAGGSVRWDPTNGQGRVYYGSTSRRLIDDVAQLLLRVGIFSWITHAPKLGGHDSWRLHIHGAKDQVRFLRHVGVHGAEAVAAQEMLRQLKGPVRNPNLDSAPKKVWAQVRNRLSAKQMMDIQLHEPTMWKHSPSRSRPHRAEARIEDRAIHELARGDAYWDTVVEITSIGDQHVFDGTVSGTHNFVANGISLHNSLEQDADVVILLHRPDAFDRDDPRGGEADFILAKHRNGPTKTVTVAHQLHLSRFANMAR

[18] = human group III sPLA2 inhibitors, dose response, biochemical, QFRET, IC50 (AID 743457);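 also: green fluorescence rise as the enzyme cleaves BODIPY PC-A2 in liposomes; potency for inhibition of the enzyme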
Protein Wnt-3a [19] = target: T3, Protein Wnt-3a (Mus musculus, UniProt P27467); assay: Wnt3a-driven reporter signaling inhibition, dose response, selectivity assay for Gli-SUFU antagonist project, Wnt-LIGHT cells, luminescence (AID 651570); type: functional; settings: read-out: IC50_Mean;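 also: Wnt-LIGHT reporter cells stimulated with conditioned medium from Wnt3a-producing cells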
T3 sequence (P27467 whole entry): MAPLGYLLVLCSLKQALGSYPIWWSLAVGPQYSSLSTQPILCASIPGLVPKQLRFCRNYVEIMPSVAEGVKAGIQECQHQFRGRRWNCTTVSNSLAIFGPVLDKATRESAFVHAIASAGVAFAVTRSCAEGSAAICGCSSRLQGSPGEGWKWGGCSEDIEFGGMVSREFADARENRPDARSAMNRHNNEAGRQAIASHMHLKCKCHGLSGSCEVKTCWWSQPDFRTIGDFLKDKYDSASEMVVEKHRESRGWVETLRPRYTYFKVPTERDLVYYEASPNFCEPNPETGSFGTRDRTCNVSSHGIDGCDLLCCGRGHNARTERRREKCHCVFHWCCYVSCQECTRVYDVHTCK

[20] = target: Matrix metalloproteinase-14 (Homo sapiens, UniProt P50281); assay: Dose Response confirmation of uHTS hits for a small molecule inhibitors of MT1-MMP activation in a fluorescence assay set 1.; type: functional
Beta-galactosidase = Beta-galactosidase (Escherichia coli, UniProt Q8VNN2); assay: Dose response counterscreen for EBI2 assay utilizing the enzyme, b-galactosidase.; type: functional
Sequence of Beta-galactosidase (Q8VNN2 whole entry): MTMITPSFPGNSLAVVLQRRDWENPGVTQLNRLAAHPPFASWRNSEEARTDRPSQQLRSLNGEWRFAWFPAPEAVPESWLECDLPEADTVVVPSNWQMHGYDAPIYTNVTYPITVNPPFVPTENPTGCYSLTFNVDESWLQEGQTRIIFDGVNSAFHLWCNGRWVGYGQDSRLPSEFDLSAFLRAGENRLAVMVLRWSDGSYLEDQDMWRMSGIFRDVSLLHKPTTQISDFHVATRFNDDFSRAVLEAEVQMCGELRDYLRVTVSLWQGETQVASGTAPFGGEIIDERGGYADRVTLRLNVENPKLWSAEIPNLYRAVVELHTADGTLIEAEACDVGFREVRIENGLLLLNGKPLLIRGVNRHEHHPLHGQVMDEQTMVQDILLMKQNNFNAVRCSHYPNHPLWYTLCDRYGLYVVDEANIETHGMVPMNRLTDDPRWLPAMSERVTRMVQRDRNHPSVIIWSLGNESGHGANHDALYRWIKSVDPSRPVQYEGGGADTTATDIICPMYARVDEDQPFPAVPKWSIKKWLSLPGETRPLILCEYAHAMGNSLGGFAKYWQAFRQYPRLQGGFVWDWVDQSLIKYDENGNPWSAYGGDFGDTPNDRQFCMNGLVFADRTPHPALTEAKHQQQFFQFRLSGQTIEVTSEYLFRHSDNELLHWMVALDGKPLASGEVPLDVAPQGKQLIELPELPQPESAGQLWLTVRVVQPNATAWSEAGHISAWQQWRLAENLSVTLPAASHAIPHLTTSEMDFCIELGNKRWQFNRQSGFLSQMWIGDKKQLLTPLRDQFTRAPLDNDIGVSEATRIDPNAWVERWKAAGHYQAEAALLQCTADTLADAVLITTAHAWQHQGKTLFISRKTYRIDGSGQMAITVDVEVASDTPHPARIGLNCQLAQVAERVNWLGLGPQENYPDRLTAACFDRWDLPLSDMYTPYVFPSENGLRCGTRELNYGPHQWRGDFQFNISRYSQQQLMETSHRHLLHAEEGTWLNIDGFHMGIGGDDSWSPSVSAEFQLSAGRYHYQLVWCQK

[21] = Late stage assay provider results from the probe development effort to identify inhibitors of the Plasmodium falciparum M17 Leucine Aminopeptidase (M17LAP): radiolabel-based cell-based dose response assay to identify compounds that inhibit P. falciparum growth in RBCs Set 2.; type: functional
[22] = intracellular Trypanosoma cruzi inhibitors in host cells – cell-based, plate reader, cherry-pick samples, set 3, dose response (AID 651818); type: functional;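 also: compounds incubated with infected cells for about four days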
[23] = NIH/3T3 fibroblast cytotoxicity, dose response, cytotoxicity control for T. cruzi growth inhibitor project, cell-based, cherry-pick samples, set 2 (AID 651817); type: functional; settings: NIH3T3
Protein Wnt-3a [24] = target: T3, Protein Wnt-3a; assay: SAR analysis of small molecule antagonists of Gli-SUFU in a Wnt3a luminescent reporter assay.; type: functional
[25] = T. cruzi intracellular amastigote growth inhibition, dose response, imaging, CA-I/72 strain, bovine embryo skeletal muscle, dry powder (AID 651885); type: functional, cell-based
[26] = target: T4, Sentrin-specific protease 1 (Homo sapiens, UniProt Q9P0U3); assay: potency of human SENP1 inhibitors, dose response, biochemical, kinetic FRET (AID 651697); type: functional; settings: read-out: IC50_Mean
T4 sequence (Q9P0U3 whole entry, the tested form may be a part): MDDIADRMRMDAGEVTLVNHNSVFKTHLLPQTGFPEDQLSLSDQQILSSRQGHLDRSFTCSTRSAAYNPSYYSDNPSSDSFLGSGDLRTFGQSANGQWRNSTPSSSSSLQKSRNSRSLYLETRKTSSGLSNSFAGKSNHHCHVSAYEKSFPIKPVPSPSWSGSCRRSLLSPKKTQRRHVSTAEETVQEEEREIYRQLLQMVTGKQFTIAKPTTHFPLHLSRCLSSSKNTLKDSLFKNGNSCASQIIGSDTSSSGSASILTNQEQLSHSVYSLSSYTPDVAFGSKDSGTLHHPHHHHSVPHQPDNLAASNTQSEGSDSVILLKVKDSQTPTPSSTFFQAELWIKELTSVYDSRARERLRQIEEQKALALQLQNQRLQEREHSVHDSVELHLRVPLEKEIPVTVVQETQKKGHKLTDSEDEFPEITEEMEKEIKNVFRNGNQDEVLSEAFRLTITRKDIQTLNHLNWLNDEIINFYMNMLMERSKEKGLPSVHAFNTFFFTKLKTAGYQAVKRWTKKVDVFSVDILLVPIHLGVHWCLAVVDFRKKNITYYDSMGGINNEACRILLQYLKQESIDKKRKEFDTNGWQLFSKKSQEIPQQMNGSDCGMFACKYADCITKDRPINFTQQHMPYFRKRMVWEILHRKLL

[27] = target: T4, Sentrin-specific protease 1; assay: Dose response confirmation of small molecule inhibitors of the catalytic domain of the SUMO protease, SENP1 in a FRET assay.; type: functional; settings: read-out: IC50_Mean
[28] = target: T5, Rac GTPase-activating protein 1 (Homo sapiens, UniProt Q9H0H5); assay: MgcRacGAP GTPase-activating activity inhibitors, confirmation, biochemical, ADP Hunter fluorescence, primary and confirmatory (AID 624330); type: functional
T5 sequence (Q9H0H5 whole entry): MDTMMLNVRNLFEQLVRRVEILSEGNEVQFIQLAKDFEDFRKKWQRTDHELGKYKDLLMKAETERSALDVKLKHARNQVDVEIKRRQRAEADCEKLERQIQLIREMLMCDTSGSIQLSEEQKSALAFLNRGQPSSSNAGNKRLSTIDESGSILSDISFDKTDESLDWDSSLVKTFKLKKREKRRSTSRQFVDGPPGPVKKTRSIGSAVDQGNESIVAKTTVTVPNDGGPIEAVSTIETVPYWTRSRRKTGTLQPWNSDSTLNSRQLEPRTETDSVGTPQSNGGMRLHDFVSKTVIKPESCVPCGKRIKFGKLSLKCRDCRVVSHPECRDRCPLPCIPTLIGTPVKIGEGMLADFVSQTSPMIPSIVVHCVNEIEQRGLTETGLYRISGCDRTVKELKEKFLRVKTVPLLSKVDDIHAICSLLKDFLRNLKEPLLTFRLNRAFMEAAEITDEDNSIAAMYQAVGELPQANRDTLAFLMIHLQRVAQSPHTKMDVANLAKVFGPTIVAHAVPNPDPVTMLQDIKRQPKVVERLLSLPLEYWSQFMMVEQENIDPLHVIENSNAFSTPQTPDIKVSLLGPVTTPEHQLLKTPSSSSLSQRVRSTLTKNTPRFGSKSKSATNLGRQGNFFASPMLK

Large T antigen = Large T antigen (Simian virus 40, UniProt P03070); type: functional, Betapolyomavirus macacae;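 also: Confirmatory-stage PubChem screen for compounds that inhibit SV40 T antigen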
Sequence of Large T antigen (P03070 whole entry): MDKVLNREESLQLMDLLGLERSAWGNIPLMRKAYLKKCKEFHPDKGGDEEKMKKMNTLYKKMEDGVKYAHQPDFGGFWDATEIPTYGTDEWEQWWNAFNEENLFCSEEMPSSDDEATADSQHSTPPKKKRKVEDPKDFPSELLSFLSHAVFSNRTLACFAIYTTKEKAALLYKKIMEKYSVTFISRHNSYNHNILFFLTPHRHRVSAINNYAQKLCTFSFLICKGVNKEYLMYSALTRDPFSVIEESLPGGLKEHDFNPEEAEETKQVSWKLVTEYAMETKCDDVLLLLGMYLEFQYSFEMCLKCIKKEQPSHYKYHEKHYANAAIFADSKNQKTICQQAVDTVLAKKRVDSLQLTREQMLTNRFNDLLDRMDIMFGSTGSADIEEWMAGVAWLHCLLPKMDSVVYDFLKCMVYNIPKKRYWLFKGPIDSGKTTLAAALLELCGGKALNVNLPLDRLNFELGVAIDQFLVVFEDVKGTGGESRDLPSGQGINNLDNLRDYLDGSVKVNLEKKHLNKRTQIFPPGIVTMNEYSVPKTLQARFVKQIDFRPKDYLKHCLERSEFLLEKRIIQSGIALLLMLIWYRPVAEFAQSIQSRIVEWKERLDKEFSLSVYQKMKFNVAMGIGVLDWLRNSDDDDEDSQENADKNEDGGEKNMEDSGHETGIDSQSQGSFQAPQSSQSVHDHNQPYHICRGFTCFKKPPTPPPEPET

Which EC50 [1] does the source give for `Nc1c(C(=O)Nc2ccc(S(=O)(=O)N3CCCC3)cc2)sc2nc3ccc(OC(F)(F)F)cc3cc12` here?
The EC50 was 4.12 µM (active).

And the AC50 [2]?
The AC50 was 15.7 µM (active).

And the EC50 [3]?
The EC50 was 3.77 µM (active).

What about the EC50 [4] of the same compound?
Its EC50 is 5.71 µM (inconclusive).

And the EC50 [5]?
Its EC50 is 2.05 µM (active).

And the AC50 (INS1)?
Its AC50 is 3.5 µM (active).

Which EC50 [6] does the source give for `Cc1ccc2nc(O)c3cc(C(=O)N(C)Cc4ccco4)sc3c2c1` here?
Its EC50 is > 91.2 µM (inactive).

And the EC50 [7]?
The EC50 was > 91.2 µM (inactive).

For `COc1ccc(-c2cc(C(F)(F)F)nc(S(C)(=O)=O)n2)cc1`, which CC50 [8] is on record?
Its CC50 is 26 µM (active).

And the AC50 [9]?
Its AC50 is 48.6 µM (active).

And the AC50 [10]?
The AC50 was 5.05 µM (active).

What about the IC50 [11] of the same compound?
Its IC50 is 5.47 µM (active).

What about the AC50 [12] of the same compound?
The AC50 was 4.46 µM (active).

And the AC50 [13]?
The AC50 was 3.81 µM (active).

What about the AC50 [14] of the same compound?
The AC50 was 15.3 µM (active).

What about the AC50 [15] of the same compound?
Its AC50 is 45.9 µM (active).

What about the IC50 (cells) of the same compound?
The IC50 was 10.9 µM (active).

What about the AC50 [16] of the same compound?
Its AC50 is 26.3 µM (active).

What about the EC50 (Protein RecA) of the same compound?
Its EC50 is 4.88 µM (active).

What about the AC50 [17] of the same compound?
The AC50 was 5.99 µM (active).

For `COc1ccc(NC(=O)NNC(=O)c2ccc3ccccc3c2O)c(OC)c1`, which IC50 [18] is on record?
Its IC50 is > 122 µM (inactive).

What does the source list for `C[N+]1=C(/C=C/Nc2ccccc2)C(C)(C)c2ccccc21`?
IC50 (Protein Wnt-3a [19]): 50 µM (inactive); IC50 [20]: 17.4 µM (active)

With `COc1ccc2cc(C(=O)N3CCN(c4cccc(C)c4C)CC3)[nH]c2c1` as the compound, how does the IC50 (Beta-galactosidase) read?
Its IC50 is > 80 µM (inactive).

For `CCCCCCCCCC(=O)NO`, which IC50 [21] is on record?
Its IC50 is 27 µM (inactive).

Which AC50 [22] does the source give for `Cc1ccc(S(=O)(=O)Nc2ccc3c(c2)CC(=O)N([C@H](C)CO)C[C@@H](C)[C@@H](CN(C)Cc2ccc(Cl)c(Cl)c2)O3)cc1` here?
The AC50 was 3.29 µM (active).

And the AC50 [23]?
The AC50 was 9.47 µM (active).

For `O=C(Nc1cc(N2CCCCC2)ncn1)c1cccc(F)c1`, which IC50 (Protein Wnt-3a [24]) is on record?
Its IC50 is > 21.8 µM (inactive).

For `C[C@H]1CN([C@@H](C)CO)C(=O)c2cccc(NC(=O)c3ccncc3)c2O[C@@H]1CN(C)Cc1ccc(C(=O)Nc2ccccc2N)cc1`, which IC50 [25] is on record?
Its IC50 is > 20 µM (inactive).

What does the source list for `NC(=O)N/N=C/c1ccc(N2CCOCC2)s1`?
IC50 [26]: 9.07 µM (active); IC50 [27]: 11.1 µM (active); IC50 [28]: 40.4 µM (active); IC50 (Large T antigen): 13.8 µM (active)
